Laboratory results as given in patent US8124637B2, “Anthra [1, 2-d]imidazole-6,11-dione derivatives, preparation method and application thereof” (National Defense Medical Center, priority 2010, dated 2012).

Legend:
786-0 = assay: NCI 60-cell drug screen, one dose; assay type: cell-based, human; conditions: Renal Cancer 786-0, 1.00E−5 Molar
Experimental: (§1) In brief, cellular protein levels were determined after 48 hours of drug exposure by sulforhodamine B colorimetry.
(§2) The screening system in United State National Cancer Institute (NCI) consists of 60 kinds of different human cancer cells, which can be used to assay the growth-inhibiting ability or cell toxicity of a compound against various cancer and tumor at a certain concentration. The NCI had selected 6 compounds synthesized above, and performed cell toxicity assay against 60 kinds of cancer cell strains (Table 2) (DTP Human Tumor Cell Line Screen), in which each compound was assayed at a certain concentration to observe its inhibition ability or cell toxicity against various kinds of cancer and tumor.

HT29 = assay: NCI 60-cell drug screen, one dose; assay type: cell-based, human; conditions: Colon Cancer HT29, 1.00E−5 Molar
Experimental: as §1, §2

SNB-75 = assay: NCI 60-cell drug screen, one dose; assay type: cell-based, human; conditions: CNS Cancer SNB-75, 1.00E−5 Molar
Experimental: as §1, §2

MDA-MB-435 = assay: NCI 60-cell drug screen, one dose; assay type: cell-based, human; conditions: Melanoma MDA-MB-435, 1.00E−5 Molar
Experimental: as §1, §2

NCI-H226 = assay: NCI 60-cell drug screen, one dose; assay type: cell-based, human; conditions: Non-Small Cell Lung Cancer NCI-H226, 1.00E−5 Molar
Experimental: as §1, §2

OVCAR-5 = assay: NCI 60-cell drug screen, one dose; assay type: cell-based, human; conditions: Ovarian Cancer OVCAR-5, 1.00E−5 Molar
Experimental: as §1, §2

SF-539 = assay: NCI 60-cell drug screen, one dose; assay type: cell-based, human; conditions: CNS Cancer SF-539, 1.00E−5 Molar
Experimental: as §1, §2

UACC-62 = assay: NCI 60-cell drug screen, one dose; assay type: cell-based, human; conditions: Melanoma UACC-62, 1.00E−5 Molar
Experimental: as §1, §2

HCT-116 = assay: NCI 60-cell drug screen, one dose; assay type: cell-based, human; conditions: Colon Cancer HCT-116, 1.00E−5 Molar
Experimental: as §1, §2

HCT-15 = assay: NCI 60-cell drug screen, one dose; assay type: cell-based, human; conditions: Colon Cancer HCT-15, 1.00E−5 Molar
Experimental: as §1, §2

TK-10 = assay: NCI 60-cell drug screen, one dose; assay type: cell-based, human; conditions: Renal Cancer TK-10, 1.00E−5 Molar
Experimental: as §1, §2

SK-MEL-5 = assay: NCI 60-cell drug screen, one dose; assay type: cell-based, human; conditions: Melanoma SK-MEL-5, 1.00E−5 Molar
Experimental: as §1, §2

[1] = NCI 60-cell drug screen, one dose; assay type: cell-based, human; conditions: Renal Cancer A489, 1.00E−5 Molar
Experimental: as §1, §2

KM12 = assay: NCI 60-cell drug screen, one dose; assay type: cell-based, human; conditions: Colon Cancer KM12, 1.00E−5 Molar
Experimental: as §1, §2

SW-620 = assay: NCI 60-cell drug screen, one dose; assay type: cell-based, human; conditions: Colon Cancer SW-620, 1.00E−5 Molar
Experimental: as §1, §2

T-47D = assay: NCI 60-cell drug screen, one dose; assay type: cell-based, human; conditions: Breast Cancer T-47D, 1.00E−5 Molar
Experimental: as §1, §2

M14 = assay: NCI 60-cell drug screen, one dose; assay type: cell-based, human; conditions: Melanoma M14, 1.00E−5 Molar
Experimental: as §1, §2

MDA-MB-468 = assay: NCI 60-cell drug screen, one dose; assay type: cell-based, human; conditions: Breast Cancer MDA-MB-468, 1.00E−5 Molar
Experimental: as §1, §2

MCF7 = assay: NCI 60-cell drug screen, one dose; assay type: cell-based, human; conditions: Breast Cancer MCF7, 1.00E−5 Molar
Experimental: as §1, §2

SF-268 = assay: NCI 60-cell drug screen, one dose; assay type: cell-based, human; conditions: CNS Cancer SF-268, 1.00E−5 Molar
Experimental: as §1, §2

NCI-H322M = assay: NCI 60-cell drug screen, one dose; assay type: cell-based, human; conditions: Non-Small Cell Lung Cancer NCI-H322M, 1.00E−5 Molar
Experimental: as §1, §2

SN12C = assay: NCI 60-cell drug screen, one dose; assay type: cell-based, human; conditions: Renal Cancer SN12C, 1.00E−5 Molar
Experimental: as §1, §2

NCI-H23 = assay: NCI 60-cell drug screen, one dose; assay type: cell-based, human; conditions: Non-Small Cell Lung Cancer NCI-H23, 1.00E−5 Molar
Experimental: as §1, §2

UO-31 = assay: NCI 60-cell drug screen, one dose; assay type: cell-based, human; conditions: Renal Cancer UO-31, 1.00E−5 Molar
Experimental: as §1, §2

IGROV1 = assay: NCI 60-cell drug screen, one dose; assay type: cell-based, human; conditions: Ovarian Cancer IGROV1, 1.00E−5 Molar
Experimental: as §1, §2

HOP-62 = assay: NCI 60-cell drug screen, one dose; assay type: cell-based, human; conditions: Non-Small Cell Lung Cancer HOP-62, 1.00E−5 Molar
Experimental: as §1, §2

LOX IMVI = assay: NCI 60-cell drug screen, one dose; assay type: cell-based, human; conditions: Melanoma LOX IMVI, 1.00E−5 Molar
Experimental: as §1, §2

HL-60(TB) = assay: NCI 60-cell drug screen, one dose; assay type: cell-based, human; conditions: Leukemia HL-60(TB), 1.00E−5 Molar
Experimental: as §1, §2

DU145 = assay: NCI 60-cell drug screen, one dose; assay type: cell-based, human; conditions: Prostate Cancer DU145, 1.00E−5 Molar
Experimental: as §1, §2

COLO 205 = assay: NCI 60-cell drug screen, one dose; assay type: cell-based, human; conditions: Colon Cancer COLO 205, 1.00E−5 Molar
Experimental: as §1, §2

NCI-H460 = assay: NCI 60-cell drug screen, one dose; assay type: cell-based, human; conditions: Non-Small Cell Lung Cancer NCI-H460, 1.00E−5 Molar
Experimental: as §1, §2

MDA-MB-231/ATCC = assay: NCI 60-cell drug screen, one dose; assay type: cell-based, human; conditions: Breast Cancer MDA-MB-231/ATCC, 1.00E−5 Molar
Experimental: as §1, §2

OVCAR-3 = assay: NCI 60-cell drug screen, one dose; assay type: cell-based, human; conditions: Ovarian Cancer OVCAR-3, 1.00E−5 Molar
Experimental: as §1, §2

SK-OV-3 = assay: NCI 60-cell drug screen, one dose; assay type: cell-based, human; conditions: Ovarian Cancer SK-OV-3, 1.00E−5 Molar
Experimental: as §1, §2

ACHN = assay: NCI 60-cell drug screen, one dose; assay type: cell-based, human; conditions: Renal Cancer ACHN, 1.00E−5 Molar
Experimental: as §1, §2

[2] = test system: 60 kinds of different human cancer cells; assay: NCI 60-cell drug screen, one dose, whole panel; assay type: cell-based; conditions: mean over the tested cell lines, 1.00E−5 Molar
Experimental: as §1, §2

Row | SMILES | Growth Percent (786-0) | Growth Percent (HT29) | Growth Percent (SNB-75) | Growth Percent (MDA-MB-435) | Growth Percent (NCI-H226) | Growth Percent (OVCAR-5) | Growth Percent (SF-539) | Growth Percent (UACC-62) | Growth Percent (HCT-116) | Growth Percent (HCT-15) | Growth Percent (TK-10) | Growth Percent (SK-MEL-5) | Growth Percent [1] | Growth Percent (KM12) | Growth Percent (SW-620) | Growth Percent (T-47D) | Growth Percent (M14) | Growth Percent (MDA-MB-468) | Growth Percent (MCF7) | Growth Percent (SF-268) | further results
1 | CN(CCc1ccccn1)Cc1nc2ccc3c(c2[nH]1)C(=O)c1ccccc1C3=O [CL07, 2-((N-methyl-2-(pyridin-2-yl)ethanamino)methyl)-1H-anthra[1,2-d]imidazole-6,11-dione] | 89.74% | 84.18% | 81.62% | 93.53% | 81.36% | 109.14% | 102.32% | 89.67% | 83.56% | 80.78% | 130.74% | 75.48% | 69.60% | 89.03% | 100.52% | 68.45% | 106.97% | 77.09% | 69.06% | 85.87% | Growth Percent (NCI-H322M): 102.29%; Growth Percent (SN12C): 91.19%; Growth Percent (NCI-H23): 90.81%; Growth Percent (UO-31): 49.49%; Growth Percent (IGROV1): 54.26%; Growth Percent (HOP-62): 105.37%; Growth Percent (LOX IMVI): 89.67%; Growth Percent (HL-60(TB)): 120.08%; Growth Percent (DU145): 83.70%; Growth Percent (COLO 205): 117.88%; Growth Percent (NCI-H460): 90.27%; Growth Percent (MDA-MB-231/ATCC): 88.98%; Growth Percent (OVCAR-3): 83.57%; Growth Percent (SK-OV-3): 106.7%; Growth Percent (ACHN): 80.20%; Growth Percent, Mean [2]: 89.07%
2 | O=C1c2ccccc2C(=O)c2c1ccc1nc(CN3CCCCC3)[nH]c21 [CL16, 2-((piperidin-1-yl)methyl)-1H-anthra[1,2-d]imidazole-6,11-dione] | 62.88% | 61.38% | 86.42% | 102.02% | 78.85% | 101.70% | 82.47% | 74.61% | 62.12% | 54.20% | 115.68% | 65.73% | 61.84% | 77.40% | 71.72% | 69.11% | 100.82% | 58.32% | 42.74% | 58.46% | Growth Percent (NCI-H322M): 92.47%; Growth Percent (SN12C): 96.96%; Growth Percent (NCI-H23): 81.32%; Growth Percent (UO-31): 42.93%; Growth Percent (IGROV1): 54.22%; Growth Percent (HOP-62): 92.69%; Growth Percent (LOX IMVI): 62.99%; Growth Percent (HL-60(TB)): 56.89%; Growth Percent (DU145): 74.90%; Growth Percent (COLO 205): 74.65%; Growth Percent (NCI-H460): 64.61%; Growth Percent (MDA-MB-231/ATCC): 77.93%; Growth Percent (OVCAR-3): 66.26%; Growth Percent (SK-OV-3): 92.54%; Growth Percent (ACHN): 47.11%; Growth Percent, Mean [2]: 75.35%
3 | CN1CCN(Cc2nc3ccc4c(c3[nH]2)C(=O)c2ccccc2C4=O)CC1 [CL24, 2-((4-methylpiperazin-1-yl)methyl)-1H-anthra[1,2-d]imidazole-6,11-dione] | 59.13% | 22.64% | 69.87% | 86.53% | 64.48% | 97.72% | 63.88% | 81.12% | 27.73% | 44.98% | 73.05% | 77.46% | 69.36% | 55.51% | 44.22% | 97.08% | 97.20% | 71.59% | 36.71% | 51.16% | Growth Percent (NCI-H322M): 82.41%; Growth Percent (SN12C): 48.50%; Growth Percent (NCI-H23): 72.97%; Growth Percent (UO-31): 22.93%; Growth Percent (IGROV1): 12.05%; Growth Percent (HOP-62): 60.84%; Growth Percent (LOX IMVI): 43.47%; Growth Percent (HL-60(TB)): 65.29%; Growth Percent (DU145): 60.08%; Growth Percent (COLO 205): 53.66%; Growth Percent (NCI-H460): 57.35%; Growth Percent (MDA-MB-231/ATCC): 61.66%; Growth Percent (OVCAR-3): 52.79%; Growth Percent (SK-OV-3): 74.33%; Growth Percent (ACHN): 33.08%; Growth Percent, Mean [2]: 59.85%
4 | CCN(CC)Cc1nc2ccc3c(c2[nH]1)C(=O)c1ccccc1C3=O [CL04, 2-((diethylamino)methyl)-1H-anthra[1,2-d]imidazole-6,11-dione] | 64.88% | 56.02% | 82.03% | 88.53% | 77.20% | 96.50% | 85.26% | 68.47% | 48.22% | 65.75% | 98.12% | 68.20% | 49.50% | 76.89% | 60.46% | 83.55% | 97.86% | 54.46% | 51.13% | 74.04% | Growth Percent (NCI-H322M): 90.06%; Growth Percent (SN12C): 69.04%; Growth Percent (NCI-H23): 75.96%; Growth Percent (UO-31): 27.21%; Growth Percent (IGROV1): 13.61%; Growth Percent (HOP-62): 85.27%; Growth Percent (LOX IMVI): 61.98%; Growth Percent (HL-60(TB)): 68.18%; Growth Percent (DU145): 73.54%; Growth Percent (COLO 205): 81.00%; Growth Percent (NCI-H460): 55.50%; Growth Percent (MDA-MB-231/ATCC): 75.52%; Growth Percent (OVCAR-3): 63.32%; Growth Percent (SK-OV-3): 86.81%; Growth Percent (ACHN): 48.41%; Growth Percent, Mean [2]: 69.66%
